In patent publication US20040138301A1, “Chemical uncouplers for the treatment of obesity” (priority 2002, published 2004):

Tested on: FSK-4 cells
Assay: Assay (IV): Glucose utilisation in FSK-4 cells
Format: cell-based
Conditions: FSK-4 cells; for EC50: glucose utilisation, 24 hours incubation, read-out: FSK4 EC50; for Emax: maximal efficacy relative to FCCP, read-out: FSK4 Emax (% of FCCP)

Row | Structure (SMILES) | EC50 [nM] | Emax [%]
1 | N#CC(C#N)=NNc1ccc(OC(F)(F)F)cc1 [Example 27, Carbonylcyanide p-Trifluoromethoxy-Phenylhydrazone, reference compound] | 1000 | 100
2 | N#CC(C#N)=Cc1c[nH]c2ccc(Cl)cc12 [Example 30, 2-((5-Chloro-1H-Indol-3-Yl)Methylene)Malononitrile] | 50000 | 100
3 | N#CC(C#N)=Cc1c(Cl)[nH]c2ccccc12 [Example 34, 2-(2-Chloro-1H-Indol-3-Ylmethylene)-Malononitrile] | 400 | 90
4 | Cc1c(Br)cc(C(C)(C)C)c(O)c1C(=O)Nc1ccc([N+](=O)[O-])cc1Cl [Example 37, 3-Bromo-5-Tert-Butyl-N-(2-Chloro-4-Nitro-Phenyl)-6-Hydroxy-2-Methyl-Benzamide] | 30 | 110
5 | Cc1c(Cl)cc(C(C)(C)C)c(O)c1C(=O)Nc1ccc([N+](=O)[O-])cc1C(F)(F)F [Example 50, 3-Tert-Butyl-5-Chloro-2-Hydroxy-6-Methyl-N-(4-Nitro-2-Trifluoromethyl-Phenyl)-Benzamide] | < 30 | 75
6 | Cc1cc(C(C#N)c2ccc(Cl)cc2)c(Cl)cc1NC(=O)c1c(C)c(Br)cc(C(C)(C)C)c1O (stereo not drawn) [Example 56, 3-Bromo-5-Tert-Butyl-N-{5-Chloro-4-[(4-Chloro-Phenyl)-Cyano-Methyl]-2-Methyl-Phenyl}-6-Hydroxy-2-Methyl-Benzamide] | 8000 | 105
7 | Cc1c(Br)cc(C(C)(C)C)c(O)c1C(=O)Nc1ccc([N+](=O)[O-])cc1C(F)(F)F [Example 58, 3-Bromo-5-Tert-Butyl-6-Hydroxy-2-Methyl-N-(4-Nitro-2-Trifluoromethyl-Phenyl)-Benzamide] | < 30 | 100
8 | CC(=C(C#N)C#N)c1cc(C(C)(C)C)c(O)c(C(C)(C)C)c1 [Example 75, 2-[1-(3,5-Di-Tert-Butyl-4-Hydroxy-Phenyl)-Ethylidene]-Malononitrile] | 700 | 75
9 | CC(C)(C)c1cc(/C=C(\C#N)c2ccc([N+](=O)[O-])cc2)cc(C(C)(C)C)c1O [Example 77, 3-(3,5-Di-Tert-Butyl-4-Hydroxy-Phenyl)-2-(4-Nitro-Phenyl)-Acrylonitrile] | 1000 | 110
